The values that follow come from patent US11179383B2 (Gilead Sciences, Inc., priority 2018, dated 2021).

Structures are written as SMILES.

The experiment concerns the target T1, α4β7 integrin (Homo sapiens, UniProt P13612+P26010).
T1 construct: monitoring the capture of α4β7 integrin expressing cells on a recombinant MadCAM-1 extracellular domain-coated plate; endogenous in cells; host or cells: RPMI8866 cells
T1 sequence (P13612 34-1032): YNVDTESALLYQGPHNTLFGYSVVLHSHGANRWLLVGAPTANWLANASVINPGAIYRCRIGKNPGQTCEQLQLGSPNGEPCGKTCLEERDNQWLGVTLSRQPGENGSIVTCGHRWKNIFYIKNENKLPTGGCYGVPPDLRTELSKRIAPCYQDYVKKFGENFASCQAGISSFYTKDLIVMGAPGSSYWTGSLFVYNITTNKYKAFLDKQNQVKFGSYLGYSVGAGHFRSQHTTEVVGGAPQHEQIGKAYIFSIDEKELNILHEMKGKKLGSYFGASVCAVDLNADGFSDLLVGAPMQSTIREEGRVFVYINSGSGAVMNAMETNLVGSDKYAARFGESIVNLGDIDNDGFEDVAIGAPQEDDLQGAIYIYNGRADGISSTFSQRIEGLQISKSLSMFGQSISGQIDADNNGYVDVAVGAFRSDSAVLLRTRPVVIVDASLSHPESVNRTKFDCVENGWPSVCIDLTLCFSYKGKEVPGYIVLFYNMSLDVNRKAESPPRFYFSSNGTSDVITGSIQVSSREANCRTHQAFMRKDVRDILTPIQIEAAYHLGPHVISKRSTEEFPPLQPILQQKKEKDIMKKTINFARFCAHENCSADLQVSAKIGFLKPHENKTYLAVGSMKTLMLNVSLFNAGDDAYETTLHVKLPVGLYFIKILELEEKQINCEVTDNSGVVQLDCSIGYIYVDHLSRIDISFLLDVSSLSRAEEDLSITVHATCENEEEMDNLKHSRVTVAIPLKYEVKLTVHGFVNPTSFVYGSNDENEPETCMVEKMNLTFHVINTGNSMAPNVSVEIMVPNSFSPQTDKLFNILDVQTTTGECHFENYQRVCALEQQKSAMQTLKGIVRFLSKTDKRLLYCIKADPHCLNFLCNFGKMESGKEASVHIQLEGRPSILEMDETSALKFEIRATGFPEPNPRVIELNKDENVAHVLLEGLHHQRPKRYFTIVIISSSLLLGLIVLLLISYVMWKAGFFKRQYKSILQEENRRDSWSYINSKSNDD
T1 sequence (P26010 20-798): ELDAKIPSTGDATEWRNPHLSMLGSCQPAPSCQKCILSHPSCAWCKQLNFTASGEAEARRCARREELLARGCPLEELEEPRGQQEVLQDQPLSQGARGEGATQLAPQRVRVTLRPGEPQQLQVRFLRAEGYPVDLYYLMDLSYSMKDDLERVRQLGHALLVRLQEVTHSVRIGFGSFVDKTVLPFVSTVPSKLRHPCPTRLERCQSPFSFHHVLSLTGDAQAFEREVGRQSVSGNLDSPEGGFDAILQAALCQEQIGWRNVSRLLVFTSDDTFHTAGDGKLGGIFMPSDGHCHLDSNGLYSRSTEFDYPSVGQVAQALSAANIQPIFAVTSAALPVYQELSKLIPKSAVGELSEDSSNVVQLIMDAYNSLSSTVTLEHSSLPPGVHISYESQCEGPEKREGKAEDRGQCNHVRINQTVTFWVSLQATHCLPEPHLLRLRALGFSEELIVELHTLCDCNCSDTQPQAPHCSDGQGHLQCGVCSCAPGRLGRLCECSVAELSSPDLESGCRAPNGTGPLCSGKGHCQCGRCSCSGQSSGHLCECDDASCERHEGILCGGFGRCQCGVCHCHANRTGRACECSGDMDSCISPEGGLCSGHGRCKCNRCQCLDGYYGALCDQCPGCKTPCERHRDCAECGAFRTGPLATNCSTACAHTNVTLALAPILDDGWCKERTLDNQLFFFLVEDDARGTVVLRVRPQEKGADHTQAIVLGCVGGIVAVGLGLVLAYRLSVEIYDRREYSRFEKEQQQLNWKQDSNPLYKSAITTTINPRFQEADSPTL
Description: α4β7 Integrin Cell Capture Assay. The experiment is classed as cell-based. As to conditions: capture of α4β7 integrin expressing RPMI8866 cells on recombinant MadCAM-1 extracellular domain-coated plate; DMEM+0.5% FBS+0.5 mM MnCl2; read-out: EC50 α4β7. An outline of the steps: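 RPMI8866 cells in DMEM + 0.5% FBS + 0.5 mM MnCl2 preincubated with compound 1 h at 37 °C, then allowed to bind 30 min at 37 °C to plates coated with MAdCAM-1 extracellular domain (1.0 μg/mL). Cells fixed with glutaraldehyde, Hoechst-stained, imaged and bound cells counted; EC50 from cell count versus concentration.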

For `COc1c(F)cccc1-c1ccc(C[C@H](NC(=O)c2c(Cl)cccc2Cl)C(=O)O)c2ncccc12` [Example 45, (S)-2-(2,6-dichlorobenzamido)-3-(5-(3-fluoro-2-methoxyphenyl)quinolin-8-yl)propanoic acid], the EC50 worked out at 243 nM.
`COc1cc(F)c(F)cc1-c1ccc(C[C@H](NC(=O)c2c(Cl)cccc2Cl)C(=O)O)c2ncccc12` [Example 46, (S)-2-(2,6-dichlorobenzamido)-3-(5-(4,5-difluoro-2-methoxyphenyl)quinolin-8-yl)propanoic acid]: the EC50 worked out at 32.2 nM.
As to `O=C(N[C@@H](Cc1ccc(-c2nccc(C(F)(F)F)c2Cl)c2cccnc12)C(=O)O)c1c(Cl)cccc1Cl` [Example 51, (S)-3-(5-(3-chloro-4-(trifluoromethyl)pyridin-2-yl)quinolin-8-yl)-2-(2,6-dichlorobenzamido)propanoic acid], the EC50 is 45.1 nM.
To `COc1cc(F)c(Cl)cc1-c1ccc(C[C@H](NC(=O)c2c(Cl)cccc2Cl)C(=O)O)c2ncccc12` [Example 52, (S)-3-(5-(5-chloro-4-fluoro-2-methoxyphenyl)quinolin-8-yl)-2-(2,6-dichlorobenzamido)propanoic acid] belongs 43.8 nM; to `[2H]C([2H])([2H])Oc1cc(F)c(F)cc1-c1ccc(C[C@H](NC(=O)c2c(Cl)cccc2Cl)C(=O)O)c2ncccc12` [Example 55, (S)-2-(2,6-dichlorobenzamido)-3-(5-(4,5-difluoro-2-(methoxy-d3)phenyl)quinolin-8-yl)propanoic acid], 63.1 nM.
With `COc1cc(F)c(C)cc1-c1ccc(C[C@H](NC(=O)c2c(Cl)cccc2Cl)C(=O)O)c2ncccc12` [Example 56, (S)-2-(2,6-dichlorobenzamido)-3-(5-(4-fluoro-2-methoxy-5-methylphenyl)quinolin-8-yl)propanoic acid], the EC50 came out at 68.5 nM.
Take `O=C(N[C@@H](Cc1ccc(-c2nccc(Cl)c2C(F)(F)F)c2cccnc12)C(=O)O)c1c(Cl)cccc1Cl` [Example 57, (S)-3-(5-(4-chloro-3-(trifluoromethyl)pyridin-2-yl)quinolin-8-yl)-2-(2,6-dichlorobenzamido)propanoic acid]: the EC50 worked out at 23.6 nM.
The figure for `Cn1c(=O)c(-c2ccc(C[C@H](NC(=O)c3c(Cl)cccc3Cl)C(=O)O)c3ncccc23)c(C(F)(F)F)c2cc(Br)ccc21` [Example 58, (S)-3-(6-bromo-1-methyl-2-oxo-4-(trifluoromethyl)-1,2-dihydro-[3,5′-biquinolin]-8′-yl)-2-(2,6-dichlorobenzamido)propanoic acid] is 19.2 nM.
As for `Cn1c(=O)c(-c2ccc(C[C@H](NC(=O)c3c(Cl)cccc3Cl)C(=O)O)c3ncccc23)c(C(F)(F)F)c2ccccc21` [Example 59, (S)-2-(2,6-dichlorobenzamido)-3-(1-methyl-2-oxo-4-(trifluoromethyl)-1,2-dihydro-[3,5′-biquinolin]-8′-yl)propanoic acid], the EC50 is 10.7 nM.
The figure for `Cc1c(-c2ccc(C[C@H](NC(=O)c3c(Cl)cccc3Cl)C(=O)O)c3ncccc23)c(=O)n(C)c2ccc(C(F)(F)F)cc12` [Example 66, (S)-2-(2,6-dichlorobenzamido)-3-(1,4-dimethyl-2-oxo-6-(trifluoromethyl)-1,2-dihydro-[3,5′-biquinolin]-8′-yl)propanoic acid] is 6.2 nM.
The figure for `Cc1c(-c2ccc(C[C@H](NC(=O)c3c(Cl)cccc3Cl)C(=O)O)c3ncccc23)c(=O)n(C)c2ccc(Cl)cc12` [Example 67, (S)-3-(6-chloro-1,4-dimethyl-2-oxo-1,2-dihydro-[3,5′-biquinolin]-8′-yl)-2-(2,6-dichlorobenzamido)propanoic acid] is 2.5 nM; for `Cn1c2c(c(C(F)(F)F)c(-c3ccc(C[C@H](NC(=O)c4c(Cl)cccc4Cl)C(=O)O)c4ncccc34)c1=O)CCC2` [Example 68, (S)-2-(2,6-dichlorobenzamido)-3-(5-(1-methyl-2-oxo-4-(trifluoromethyl)-2,5,6,7-tetrahydro-1H-cyclopenta[b]pyridin-3-yl)quinolin-8-yl)propanoic acid] it is 2.7 nM.
As to `COc1cnn(C)c(=O)c1-c1ccc(C[C@H](NC(=O)c2c(Cl)cccc2Cl)C(=O)O)c2ncccc12` [Example 69, (S)-2-(2,6-dichlorobenzamido)-3-(5-(5-methoxy-2-methyl-3-oxo-2,3-dihydropyridazin-4-yl)quinolin-8-yl)propanoic acid], the EC50 is 9.2 nM.
As to `Cc1c(-c2ccc(C[C@H](NC(=O)c3c(Cl)cccc3Cl)C(=O)O)c3ncccc23)c(=O)n(C)c2ccc(Br)cc12` [Example 70, (S)-3-(6-bromo-1,4-dimethyl-2-oxo-1,2-dihydro-[3,5′-biquinolin]-8′-yl)-2-(2,6-dichlorobenzamido)propanoic acid], the half-maximal effective concentration (EC50) turned out to be 55.1 nM.
The figure for `Cc1c(-c2ccc(C[C@H](NC(=O)c3c(Cl)cccc3Cl)C(=O)O)c3ncccc23)c(=O)n(C)c2ccc(C3CC3)cc12` [Example 71, (S)-3-(6-cyclopropyl-1,4-dimethyl-2-oxo-1,2-dihydro-[3,5′-biquinolin]-8′-yl)-2-(2,6-dichlorobenzamido)propanoic acid] is 15.4 nM.
`COc1cnn(C)c(=O)c1-c1ccc(C[C@H](NC(=O)c2c(Cl)cccc2Cl)C(=O)O)c2ncccc12` [Example 72, (S)-2-(2,6-dichlorobenzamido)-3-(5-(5-methoxy-2-methyl-3-oxo-2,3-dihydropyridazin-4-yl)quinolin-8-yl)propanoic acid]: the EC50 turned out to be 11.2 nM.
For the compound `Cc1c(-c2ccc(C[C@H](NC(=O)c3c(Cl)cccc3Cl)C(=O)O)c3ncccc23)c(=O)n(C)c2cc(Cl)ccc12` [Example 74, (S)-3-(7-chloro-1,4-dimethyl-2-oxo-1,2-dihydro-[3,5′-biquinolin]-8′-yl)-2-(2,6-dichlorobenzamido)propanoic acid], the EC50 is 131 nM.
In the case of `CCOCc1cc(OC)c(-c2ccc(C[C@H](NC(=O)c3c(F)cccc3F)C(=O)O)c3ncccc23)c(OC)c1` [Example 78, (S)-2-(2,6-difluorobenzamido)-3-(5-(4-(ethoxymethyl)-2,6-dimethoxyphenyl)quinolin-8-yl)propanoic acid], the EC50 was 12.4 nM.
To `COc1cc(F)c(F)cc1-c1ccc(C[C@H](NC(=O)c2c(F)cccc2F)C(=O)O)c2ncccc12` [Example 79, (S)-3-(5-(4,5-difluoro-2-methoxyphenyl)quinolin-8-yl)-2-(2,6-difluorobenzamido) propanoic acid] belongs 45.7 nM; to `Cn1cc(-c2ccc(C[C@H](NC(=O)c3c(F)cccc3F)C(=O)O)c3ncccc23)c(=O)n(C)c1=O` [Example 80, (S)-2-(2,6-difluorobenzamido)-3-(5-(1,3-dimethyl-2,4-dioxo-1,2,3,4-tetrahydropyrimidin-5-yl)quinolin-8-yl)propanoic acid], 17 nM; to `O=C(N[C@@H](Cc1ccc(-c2cc(F)c(F)cc2OC2CC2)c2cccnc12)C(=O)O)c1c(F)cccc1F` [Example 83, (S)-3-(5-(2-cyclopropoxy-4,5-difluorophenyl)quinolin-8-yl)-2-(2,6-difluorobenzamido)propanoic acid], 109 nM.
